Laboratory results from ChEMBL document CHEMBL1201862, “PubChem BioAssay data set” (2004).
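In this assay, cells in 96-well plates receive the compound at five concentrations for 48 hours. Endpoints are linearly interpolated between the surrounding concentrations. GI50: concentration for 50% inhibition of growth.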 Active and inactive are the calls of the source. Cut-off read from the data, not from the text of the source: active = GI50 up to about 1.1 µM and inactive = higher.

Key:
Test in all cases: NCI-60 cell line screen, 48 h
COLO 205 = tested on: COLO 205
KM12 = tested on: KM12
SF-295 = tested on: SF-295
PC-3 = tested on: PC-3
SN12C = tested on: SN12C
SK-MEL-28 = tested on: SK-MEL-28
UACC-62 = tested on: UACC-62
786-0 = tested on: 786-0
T47D = tested on: T47D
ACHN = tested on: ACHN
SK-MEL-5 = tested on: SK-MEL-5
UACC-257 = tested on: UACC-257
NCI/ADR-RES = tested on: NCI/ADR-RES
SR = tested on: SR
RXF 393 = tested on: RXF 393
MDA-N = tested on: MDA-N
MCF7 = tested on: MCF7
UO-31 = tested on: UO-31
EKVX = tested on: EKVX
OVCAR-4 = tested on: OVCAR-4
HOP-62 = tested on: HOP-62
SK-MEL-2 = tested on: SK-MEL-2
MDA-MB-231 = tested on: MDA-MB-231
OVCAR-8 = tested on: OVCAR-8
SW-620 = tested on: SW-620
HOP-92 = tested on: HOP-92
SF-539 = tested on: SF-539
SK-OV-3 = tested on: SK-OV-3
Hs-578T = tested on: Hs-578T
K562 = tested on: K562
HCT-116 = tested on: HCT-116
A549 = tested on: A549
MDA-MB-435 = tested on: MDA-MB-435
TK-10 = tested on: TK-10
M14 = tested on: M14
HCC 2998 = tested on: HCC 2998
NCI-H460 = tested on: NCI-H460
HT-29 = tested on: HT-29
NCI-H23 = tested on: NCI-H23
MOLT-4 = tested on: MOLT-4
RPMI-8226 = tested on: RPMI-8226
CCRF-CEM = tested on: CCRF-CEM
U-251 = tested on: U-251
DU-145 = tested on: DU-145
OVCAR-3 = tested on: OVCAR-3
SNB-75 = tested on: SNB-75
OVCAR-5 = tested on: OVCAR-5
LOX IMVI = tested on: LOX IMVI
IGROV-1 = tested on: IGROV-1
HL-60 = tested on: HL-60
SF-268 = tested on: SF-268
Malme-3M = tested on: Malme-3M
NCI-H522 = tested on: NCI-H522
BT-549 = tested on: BT-549
SNB-19 = tested on: SNB-19
CAKI-1 = tested on: CAKI-1
HCT-15 = tested on: HCT-15
NCI-H226 = tested on: NCI-H226
A498 = tested on: A498

SMILES: Cc1c(-c2ccccc2)[nH]c2ccc(Cl)cc2c1=O
- GI50 (COLO 205): 70.6 µM (inactive)
- GI50 (KM12): 0.263 µM (active)
- GI50 (SF-295): 30.8 µM (inactive)
- GI50 (PC-3): 47.6 µM (inactive)
- GI50 (SN12C): > 100 µM (inactive)
- GI50 (SK-MEL-28): 40.6 µM (inactive)
- GI50 (UACC-62): 34.8 µM (inactive)
- GI50 (786-0): 29.8 µM (inactive)
- GI50 (T47D): 19.4 µM (inactive)
- GI50 (ACHN): 29 µM (inactive)
- GI50 (SK-MEL-5): 13.3 µM (inactive)
- GI50 (UACC-257): 27.8 µM (inactive)
- GI50 (NCI/ADR-RES): 29.5 µM (inactive)
- GI50 (SR): 12.2 µM (inactive)
- GI50 (RXF 393): 20 µM (inactive)
- GI50 (MDA-N): 17.4 µM (inactive)
- GI50 (MCF7): 25.2 µM (inactive)
- GI50 (UO-31): 0.252 µM (active)
- GI50 (EKVX): 47.4 µM (inactive)
- GI50 (OVCAR-4): 21.8 µM (inactive)
- GI50 (HOP-62): 19.1 µM (inactive)
- GI50 (SK-MEL-2): 18 µM (inactive)
- GI50 (MDA-MB-231): 19 µM (inactive)
- GI50 (OVCAR-8): 22.3 µM (inactive)
- GI50 (SW-620): 75.2 µM (inactive)
- GI50 (HOP-92): 20.4 µM (inactive)
- GI50 (SF-539): 22.2 µM (inactive)
- GI50 (SK-OV-3): 21.7 µM (inactive)
- GI50 (Hs-578T): 30.5 µM (inactive)
- GI50 (K562): 8.87 µM (inactive)
- GI50 (HCT-116): 17.6 µM (inactive)
- GI50 (A549): 0.0232 µM (active)
- GI50 (MDA-MB-435): 16.4 µM (inactive)
- GI50 (TK-10): 36.6 µM (inactive)
- GI50 (M14): 34.7 µM (inactive)
- GI50 (HCC 2998): 23.2 µM (inactive)
- GI50 (NCI-H460): 0.314 µM (active)
- GI50 (HT-29): 40.8 µM (inactive)
- GI50 (NCI-H23): 23.4 µM (inactive)
- GI50 (MOLT-4): 22 µM (inactive)
- GI50 (RPMI-8226): 15.2 µM (inactive)
- GI50 (CCRF-CEM): 55.8 µM (inactive)
- GI50 (U-251): 22.9 µM (inactive)
- GI50 (DU-145): 70 µM (inactive)
- GI50 (OVCAR-3): 17.1 µM (inactive)
- GI50 (SNB-75): 26 µM (inactive)
- GI50 (OVCAR-5): 61.9 µM (inactive)
- GI50 (LOX IMVI): 27.9 µM (inactive)
- GI50 (IGROV-1): 33.9 µM (inactive)
- GI50 (HL-60): 24.2 µM (inactive)
- GI50 (SF-268): 30.6 µM (inactive)
- GI50 (Malme-3M): 18.3 µM (inactive)
- GI50 (NCI-H522): 21.3 µM (inactive)
- GI50 (BT-549): 62.2 µM (inactive)
- GI50 (SNB-19): > 100 µM (inactive)
- GI50 (CAKI-1): < 0.01 µM (active)
- GI50 (HCT-15): 28.7 µM
- GI50 (NCI-H226): 30.4 µM (inactive)

SMILES: COC(=O)C1=C(C)N2[C@H](C(=O)O)CO[C@@]2(C)[C@H](C(=O)OC)[C@H]1c1cccc([N+](=O)[O-])c1
- GI50 (COLO 205): > 100 µM (inactive)
- GI50 (KM12): > 100 µM (inactive)
- GI50 (SF-295): > 100 µM (inactive)
- GI50 (PC-3): > 100 µM (inactive)
- GI50 (SN12C): > 100 µM (inactive)
- GI50 (SK-MEL-28): > 100 µM (inactive)
- GI50 (UACC-62): > 100 µM (inactive)
- GI50 (786-0): > 100 µM (inactive)
- GI50 (T47D): > 100 µM (inactive)
- GI50 (ACHN): > 100 µM (inactive)
- GI50 (SK-MEL-5): > 100 µM (inactive)
- GI50 (UACC-257): > 100 µM (inactive)
- GI50 (NCI/ADR-RES): > 100 µM (inactive)
- GI50 (SR): > 100 µM (inactive)
- GI50 (RXF 393): > 100 µM (inactive)
- GI50 (MDA-N): > 100 µM (inactive)
- GI50 (MCF7): > 100 µM (inactive)
- GI50 (UO-31): > 100 µM (inactive)
- GI50 (EKVX): > 100 µM (inactive)
- GI50 (OVCAR-4): > 100 µM (inactive)
- GI50 (HOP-62): > 100 µM (inactive)
- GI50 (A498): > 100 µM (inactive)
- GI50 (SK-MEL-2): > 100 µM (inactive)
- GI50 (MDA-MB-231): > 100 µM (inactive)
- GI50 (OVCAR-8): > 100 µM (inactive)
- GI50 (SW-620): > 100 µM (inactive)
- GI50 (HOP-92): > 100 µM (inactive)
- GI50 (SF-539): > 100 µM (inactive)
- GI50 (SK-OV-3): > 100 µM (inactive)
- GI50 (Hs-578T): > 100 µM (inactive)
- GI50 (K562): > 100 µM (inactive)
- GI50 (HCT-116): > 100 µM (inactive)
- GI50 (A549): > 100 µM (inactive)
- GI50 (MDA-MB-435): > 100 µM (inactive)
- GI50 (TK-10): > 100 µM (inactive)
- GI50 (M14): > 100 µM (inactive)
- GI50 (HCC 2998): > 100 µM (inactive)
- GI50 (NCI-H460): > 100 µM (inactive)
- GI50 (HT-29): > 100 µM (inactive)
- GI50 (NCI-H23): > 100 µM (inactive)
- GI50 (MOLT-4): > 100 µM (inactive)
- GI50 (RPMI-8226): > 100 µM (inactive)
- GI50 (CCRF-CEM): > 100 µM (inactive)
- GI50 (U-251): > 100 µM (inactive)
- GI50 (DU-145): > 100 µM (inactive)
- GI50 (OVCAR-3): > 100 µM (inactive)
- GI50 (SNB-75): > 100 µM (inactive)
- GI50 (OVCAR-5): > 100 µM (inactive)
- GI50 (IGROV-1): > 100 µM (inactive)
- GI50 (SF-268): > 100 µM (inactive)
- GI50 (Malme-3M): > 100 µM (inactive)
- GI50 (NCI-H522): > 100 µM (inactive)
- GI50 (BT-549): > 100 µM (inactive)
- GI50 (SNB-19): > 100 µM (inactive)
- GI50 (CAKI-1): > 100 µM (inactive)
- GI50 (HCT-15): > 100 µM
- GI50 (NCI-H226): > 100 µM (inactive)
